System: Transport facilitation protein genes
Test: DNA chip mRNA expression in yeast, transport facilitation protein genes (Table 5)
Type: cell-based, Saccharomyces cerevisiae S288C
How it was run: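 Value is the scanned fluorescence intensity ratio of exposed versus chemical-free cells. Log-phase S288C yeast in YPD at 25° C. received one toxic substance for two hours, dosed to slow growth without killing; Cy3/Cy5-labeled cDNA from oligo-dT-purified mRNA was hybridized to a whole-genome chip at 65° C.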

## S=C([S-])NCCNC(=S)[S-].[Zn+2] [(11), zinc N,N′-ethylenebis(dithiocarbamate)]
Yeast gene YBL030C
  The level of expressed mRNA in the presence of chemical substance/The level of expressed mRNA in the absence of chemical substance: 1.1
Yeast gene YBL099W
  The level of expressed mRNA in the presence of chemical substance/The level of expressed mRNA in the absence of chemical substance: 2.1
Yeast gene YBR052C
  The level of expressed mRNA in the presence of chemical substance/The level of expressed mRNA in the absence of chemical substance: 1.7
Yeast gene YBR068C
  The level of expressed mRNA in the presence of chemical substance/The level of expressed mRNA in the absence of chemical substance: 0.8
Yeast gene YBR127C
  The level of expressed mRNA in the presence of chemical substance/The level of expressed mRNA in the absence of chemical substance: 1.1
Yeast gene YBR132C
  The level of expressed mRNA in the presence of chemical substance/The level of expressed mRNA in the absence of chemical substance: 1.9
Yeast gene YBR207W
  The level of expressed mRNA in the presence of chemical substance/The level of expressed mRNA in the absence of chemical substance: 1.1
Yeast gene YBR293W
  The level of expressed mRNA in the presence of chemical substance/The level of expressed mRNA in the absence of chemical substance: 1.1
Yeast gene YBR294W
  The level of expressed mRNA in the presence of chemical substance/The level of expressed mRNA in the absence of chemical substance: 1.2
Yeast gene YBR295W
  The level of expressed mRNA in the presence of chemical substance/The level of expressed mRNA in the absence of chemical substance: 1.1
Yeast gene YBR298C
  The level of expressed mRNA in the presence of chemical substance/The level of expressed mRNA in the absence of chemical substance: 1.5
Yeast gene YCL025C
  The level of expressed mRNA in the presence of chemical substance/The level of expressed mRNA in the absence of chemical substance: 1.0
Yeast gene YCL038C
  The level of expressed mRNA in the presence of chemical substance/The level of expressed mRNA in the absence of chemical substance: 2.0
Yeast gene YCR024C-A
  The level of expressed mRNA in the presence of chemical substance/The level of expressed mRNA in the absence of chemical substance: 1.5
Yeast gene YCR037C
  The level of expressed mRNA in the presence of chemical substance/The level of expressed mRNA in the absence of chemical substance: 0.8
Yeast gene YCR098C
  The level of expressed mRNA in the presence of chemical substance/The level of expressed mRNA in the absence of chemical substance: 1.3
Yeast gene YDL128W
  The level of expressed mRNA in the presence of chemical substance/The level of expressed mRNA in the absence of chemical substance: 1.2
Yeast gene YDL198C
  The level of expressed mRNA in the presence of chemical substance/The level of expressed mRNA in the absence of chemical substance: 2.5
Yeast gene YDL210W
  The level of expressed mRNA in the presence of chemical substance/The level of expressed mRNA in the absence of chemical substance: 0.6
Yeast gene YDL245C
  The level of expressed mRNA in the presence of chemical substance/The level of expressed mRNA in the absence of chemical substance: 1.5
Yeast gene YDR038C
  The level of expressed mRNA in the presence of chemical substance/The level of expressed mRNA in the absence of chemical substance: 0.9
Yeast gene YDR039C
  The level of expressed mRNA in the presence of chemical substance/The level of expressed mRNA in the absence of chemical substance: 0.9
Yeast gene YDR086C
  The level of expressed mRNA in the presence of chemical substance/The level of expressed mRNA in the absence of chemical substance: 1.1
Yeast gene YDR270W
  The level of expressed mRNA in the presence of chemical substance/The level of expressed mRNA in the absence of chemical substance: 1.0
Yeast gene YDR298C
  The level of expressed mRNA in the presence of chemical substance/The level of expressed mRNA in the absence of chemical substance: 1.2
Yeast gene YDR342C
  The level of expressed mRNA in the presence of chemical substance/The level of expressed mRNA in the absence of chemical substance: 2.9
Yeast gene YDR343C
  The level of expressed mRNA in the presence of chemical substance/The level of expressed mRNA in the absence of chemical substance: 2.3
Yeast gene YDR345C
  The level of expressed mRNA in the presence of chemical substance/The level of expressed mRNA in the absence of chemical substance: 1.5
Yeast gene YDR387C
  The level of expressed mRNA in the presence of chemical substance/The level of expressed mRNA in the absence of chemical substance: 2.0
Yeast gene YDR497C
  The level of expressed mRNA in the presence of chemical substance/The level of expressed mRNA in the absence of chemical substance: 0.7
Yeast gene YEL027W
  The level of expressed mRNA in the presence of chemical substance/The level of expressed mRNA in the absence of chemical substance: 0.9
Yeast gene YEL063C
  The level of expressed mRNA in the presence of chemical substance/The level of expressed mRNA in the absence of chemical substance: 0.8
Yeast gene YEL065W
  The level of expressed mRNA in the presence of chemical substance/The level of expressed mRNA in the absence of chemical substance: 0.6
Yeast gene YER053C
  The level of expressed mRNA in the presence of chemical substance/The level of expressed mRNA in the absence of chemical substance: 2.4
Yeast gene YER119C
  The level of expressed mRNA in the presence of chemical substance/The level of expressed mRNA in the absence of chemical substance: 2.2
Yeast gene YFL011W
  The level of expressed mRNA in the presence of chemical substance/The level of expressed mRNA in the absence of chemical substance: 2.1
Yeast gene YFL041W
  The level of expressed mRNA in the presence of chemical substance/The level of expressed mRNA in the absence of chemical substance: 0.9
Yeast gene YFL050C
  The level of expressed mRNA in the presence of chemical substance/The level of expressed mRNA in the absence of chemical substance: 1.2
Yeast gene YFL054C
  The level of expressed mRNA in the presence of chemical substance/The level of expressed mRNA in the absence of chemical substance: 1.7
Yeast gene YFL055W
  The level of expressed mRNA in the presence of chemical substance/The level of expressed mRNA in the absence of chemical substance: 2.7
Yeast gene YGL006W
  The level of expressed mRNA in the presence of chemical substance/The level of expressed mRNA in the absence of chemical substance: 0.8
Yeast gene YGL008C
  The level of expressed mRNA in the presence of chemical substance/The level of expressed mRNA in the absence of chemical substance: 0.7
Yeast gene YGL104C
  The level of expressed mRNA in the presence of chemical substance/The level of expressed mRNA in the absence of chemical substance: 1.8
Yeast gene YGL167C
  The level of expressed mRNA in the presence of chemical substance/The level of expressed mRNA in the absence of chemical substance: 0.8
Yeast gene YGL255W
  The level of expressed mRNA in the presence of chemical substance/The level of expressed mRNA in the absence of chemical substance: 0.5
Yeast gene YGR055W
  The level of expressed mRNA in the presence of chemical substance/The level of expressed mRNA in the absence of chemical substance: 1.5
Yeast gene YGR065C
  The level of expressed mRNA in the presence of chemical substance/The level of expressed mRNA in the absence of chemical substance: 1.1
Yeast gene YGR082W
  The level of expressed mRNA in the presence of chemical substance/The level of expressed mRNA in the absence of chemical substance: 1.3
Yeast gene YGR096W
  The level of expressed mRNA in the presence of chemical substance/The level of expressed mRNA in the absence of chemical substance: 0.8
Yeast gene YGR138C
  The level of expressed mRNA in the presence of chemical substance/The level of expressed mRNA in the absence of chemical substance: 0.7
Yeast gene YGR191W
  The level of expressed mRNA in the presence of chemical substance/The level of expressed mRNA in the absence of chemical substance: 1.6
Yeast gene YGR197C
  The level of expressed mRNA in the presence of chemical substance/The level of expressed mRNA in the absence of chemical substance: 1.1
Yeast gene YGR224W
  The level of expressed mRNA in the presence of chemical substance/The level of expressed mRNA in the absence of chemical substance: 0.8
Yeast gene YGR260W
  The level of expressed mRNA in the presence of chemical substance/The level of expressed mRNA in the absence of chemical substance: 1.3
Yeast gene YGR281W
  The level of expressed mRNA in the presence of chemical substance/The level of expressed mRNA in the absence of chemical substance: 0.7

— patent US8192962B2, “Processes for detecting toxic substances” (Daikin Industries, Ltd., priority 2001, dated 2012)
